The values below come from patent US5294619A, “Arylpiperidine derivatives” (Pfizer Inc., priority 1992, dated 1994).

Structures are written as SMILES.

The assay concerns the target T1, dopamine-2 receptor (Rattus norvegicus, UniProt P61169).
T1 construct: The caudate and mesolimbic areas were then homogenized; from tissue; host or cells: rat brain, caudate and mesolimbic areas (washed membrane homogenate)
Kind of assay: 3[H]-N-propylnorapomorphine binding assay (rat caudate and mesolimbic brain tissue). Conditions: inhibition of 3[H]-N-propylnorapomorphine binding, 0.32 nM radioligand, pH 7.5, 25° C., 30 minutes. How it is done: The anti-psychotic activity of the compounds of the present invention as neuroleptic agents for the control of various psychotic disorders is determined primarily by a study of their ability to suppress ^3 [H]-N-propylnorapormorphine (dopamine-2 receptor) uptake in the brain of rats (in vitro). This study is carried out in a standard ^3 [H]-N-propylnorapomorphine binding assay test, where the amount of radioactivity is determined by liquid scintillation counting. In this way, the compounds can be rated in terms of their ability to reduce the amount of radioactivity caused by the aforesaid dopamine-2-receptor.
The N-substituted arylpiperidine compounds of Examples 1-18, respectively, were tested for anti-psychotic activity in rats, using the standard ^3 [H]-N-propylnorapomorphine binding assay test, according to the general procedure described by K. Fuxe et al., as reported in the European Journal of Pharmacology, Vol. 100, p. 127 (1984).
In this procedure, the brain was quickly removed from a decapitated rat and the caudate and mesolimbic areas were subsequently dissected therefrom to afford an average of ca. 150-180 mg. of material per rat. The caudate and mesolimbic areas were then homogenized on admixture with 40 volumes of ice-cold 15 mM Tris (i.e., tromethamine which is 2-amino-2-hydroxymethyl-1,3-propanediol) hydrochloride buffer having a pH of 7.5, which also contained 1.0 mM ethylenediaminetetraacetic acid (EDTA) and 0.01% ascorbic acid. The homogenate was next centrifuged at 35,000×G for a period of ten minutes. The supernatant liquid was then decanted, and the resulting pellet subsequently resuspended in 40 volumes of fresh, ice-cold Tris-EDTA buffer and homogenized, followed by incubation 37° C. for a period of ten minutes. The resulting homogenate was next re-centrifuged at 35,000×G for another ten-minute period, followed by decantation of the supernatant liquid. The pellet obtained in this manner was then resuspended again in the Tris-EDTA buffer, followed by a repeat of the centrifugation and decantation steps, with the final pellet being resuspended once more in 15 mM Tris-EDTA buffer at a concentration level of 11.25 mg./ml. This completed the production of the tissue preparation phase of the overall procedure.
. The final reaction mixture was next vortexed and incubated at 25° C. for a period of 30 minutes (using a 25° C. water bath for these purposes). […] Upon completion of the reaction step, the incubation period was terminated by subjecting the tubes to rapid filtration under vacuum through fiber filters, followed by two rinses with 5 ml. of ice-cold 15 mM Tris-EDTA buffer for each tube. The filters thus obtained were next soaked in 10 ml. of Aquasol 2 (a registered trademark name of New England Nuclear Corporation of Boston, Massachusetts for a liquid scintillation counter material), vortexed and then allowed to stand overnight (ca. 18 hours) at ambient temperatures in order to extract radioactivity. The amount of radioactivity was determined by liquid scintillation counting, using a Beta counter at 53% counting efficiency. The IC50 values were thereafter calculated by using standard statistical methods. On this basis, the ability of each test compound to reduce the amount of radioactivity caused by ^3 [H]-N-propylnorapomorphine is given as an IC50 value, expressed in terms of nM units.
In this way, the N-substituted arylpiperidine compounds of formula I that were reported as final products in Examples 1-18, respectively, were all assayed and found to be capable of inhibiting ^3 [H]-N-propylnorapomorphine binding at its dopamine-2 receptor site at the previously-indicated dose level tested. The results obtained in this manner are shown below in the following table, where the binding assay for each compound is reported in terms of the previously-discussed IC50 value: […]

T1 sequence (P61169 whole entry): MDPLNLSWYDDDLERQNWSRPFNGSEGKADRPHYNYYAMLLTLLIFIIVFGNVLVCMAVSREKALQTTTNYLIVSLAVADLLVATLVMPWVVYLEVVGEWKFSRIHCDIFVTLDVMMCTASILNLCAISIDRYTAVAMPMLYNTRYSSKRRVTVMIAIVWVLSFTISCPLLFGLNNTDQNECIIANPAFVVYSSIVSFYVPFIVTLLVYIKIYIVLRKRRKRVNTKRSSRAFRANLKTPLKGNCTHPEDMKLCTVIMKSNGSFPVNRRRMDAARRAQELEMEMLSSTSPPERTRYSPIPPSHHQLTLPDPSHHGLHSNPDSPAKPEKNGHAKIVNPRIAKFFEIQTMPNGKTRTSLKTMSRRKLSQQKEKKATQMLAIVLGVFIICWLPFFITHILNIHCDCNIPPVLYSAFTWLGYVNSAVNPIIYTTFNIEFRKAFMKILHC

For the compound `Cc1nc2ccccn2c(=O)c1CCN1CCC(c2cccc3ccccc23)CC1` [Example 1, 3-{2-[4-(1-naphthyl)-piperidinyl]ethyl}-2-methyl-4H-pyrido[1,2-a]-pyrimidine-4-one], the IC50 stood at 0.114 µM.
The result for `Nc1nc(-c2ccc(CCN3CCC(c4cccc5ccccc45)CC3)cc2)cs1` [Example 2, 4-{{4-{2-[4-(1-naphthyl)piperidinyl]ethyl}phenyl}}thiazole-2-amine] reads 0.196 µM.
For `O=C1CC2(CCCC2)CC(=O)N1CCCCN1CCC(c2cccc3ccccc23)CC1` [Example 3, 8-{4-[4-(1-naphthyl)-1-piperidinyl]-butyl}-8-azaspiro[4.5]decane-7,9-dione] the value was 0.239 µM; for `O=C1Cc2cc(CCN3CCC(c4cccc5ccccc45)CC3)ccc2N1` [Example 4, 5-{2-[4-(1-naphthyl)-1-piperidinyl]ethyl}-oxindole], 0.184 µM; for `O=C1Cc2cc(CCN3CCCC(c4cccc5ccccc45)C3)ccc2N1` (stereo not drawn) [Example 5, 5-{2-[3-(1-naphthyl)-1-piperidinyl]ethyl}oxindole], 0.169 µM.
The result for `CC12CCC(C(=O)N(CCCCN3CCC(c4cccc5ccccc45)CC3)C1=O)C2(C)C` (stereo not drawn) [Example 6, 3-{4-[4-(1-naphthyl)-1-piperidinyl]-n-butyl}-1,8,8-trimethyl-3-azabicyclo[3.2.1]octane-2,4-dione] reads 0.169 µM; that for `CC12CCC(C(=O)N(CCCCN3CCCC(c4cccc5ccccc45)C3)C1=O)C2(C)C` (stereo not drawn) [Example 7], 1.11 µM.
For the compound `Oc1ccc(CCN2CCC(c3ccccc3)CC2)cc1` [Example 8, 4-[2-(4-phenyl-1-piperidinyl)ethyl]phenol], the IC50 was 0.362 µM.
The result for `Oc1ccc(CCN2CCC(c3cccc(C(F)(F)F)c3)CC2)cc1` [Example 9, 4-{2-[4-(3-trifluoromethylphenyl)-piperidinyl]ethyl}phenol] reads 0.601 µM.
For `FC(F)(F)c1cccc(C2CCN(CCOc3ccccc3)CC2)c1` [Example 10, 1-{2-[4-(3-trifluoromethylphenyl)-1-piperidinyl]ethyloxy}benzene] the value was 0.21 µM; for `COc1ccccc1C1CCN(CCc2ccc(-c3csc(N)n3)cc2)CC1` [Example 11, 4-{{4-{2-[4-(2-methoxyphenyl)-1-piperidinyl]ethyl}-phenyl}}-thiazole-2-amine], 0.0363 µM.
For the compound `COc1ccccc1C1CCCN(CCc2ccc(-c3csc(N)n3)cc2)C1` (stereo not drawn) [Example 12, 4-{{4-{2-[3-(2-methoxyphenyl)-1-piperidinyl]ethyl}phenyl}}-thiazole-2-amine], the IC50 was 0.15 µM.
In turn, `COc1ccccc1C1CCCN(CCCCc2ccc(-c3csc(N)n3)cc2)C1` (stereo not drawn) [Example 13, 4-{{4-{4-[3-(2-methoxyphenyl)-1-piperidinyl]n-butyl}-phenyl}}thiazole-2amine] came in with an IC50 of 0.247 µM. This IC50 is about 1.6-fold higher than that of the compound before.
As for `COc1ccccc1C1CCN(CCCCc2ccc(-c3csc(N)n3)cc2)CC1` [Example 14, 4-{{4-{4-[4-(2-methoxyphenyl)-1-piperidinyl]-n-butyl}-phenyl}}thiazole-2-amine], the IC50 is 0.0516 µM.
In the case of `COc1ccccc1C1CCCN(CCCCN2C(=O)CC3(CCCC3)CC2=O)C1` (stereo not drawn) [Example 15, 8-{4-[3-(2-methoxyphenyl)-1-piperidinyl]-n-butyl}-8-azaspiro[4.5]decane-7,9-dione], the IC50 was found to be 0.531 µM.
The result for `COc1ccccc1C1CCN(CCc2ccc3c(c2)CC(=O)N3)CC1` [Example 16, 5-{2-[4-(2-methoxyphenyl)-1-piperidinyl]ethyl}oxindole] reads 0.0522 µM; that for `COc1ccccc1C1CCN(CCCCN2C(=O)C3CCC(C)(C2=O)C3(C)C)CC1` (stereo not drawn) [Example 17], 0.0515 µM.
The result for `COc1ccccc1C1CCCN(CCCCN2C(=O)C3CCC(C)(C2=O)C3(C)C)C1` (stereo not drawn) [Example 18, 3-{4-[3-(2-methoxyphenyl)-1-piperidinyl]-n-butyl]-1,8,8-trimethyl-3-azabicyclo[3.2.1]octane-2,4-dione] reads 0.679 µM.

For orientation: IC50 means the concentration at which inhibition is half-maximal. Read a high IC50 as weaker potency in that assay.
